Peptide text beside a SMILES is read from it.
Experiments:
FPR2 = molecular target: T1, FPR2 (Homo sapiens, UniProt P25090); experiment: Change in calcium activity by peptide (Fura-2) in RBL cells overexpressing FPR2; format: cell-based; details: calcium activity (Fura-2), graded per Table 3, read-out: EC50 for [Ca^2+] FPR2
T1 construct: expressed in transfected cells; host or cells: RBL cells (RBL-FPR2)
T1 sequence (P25090 1-351): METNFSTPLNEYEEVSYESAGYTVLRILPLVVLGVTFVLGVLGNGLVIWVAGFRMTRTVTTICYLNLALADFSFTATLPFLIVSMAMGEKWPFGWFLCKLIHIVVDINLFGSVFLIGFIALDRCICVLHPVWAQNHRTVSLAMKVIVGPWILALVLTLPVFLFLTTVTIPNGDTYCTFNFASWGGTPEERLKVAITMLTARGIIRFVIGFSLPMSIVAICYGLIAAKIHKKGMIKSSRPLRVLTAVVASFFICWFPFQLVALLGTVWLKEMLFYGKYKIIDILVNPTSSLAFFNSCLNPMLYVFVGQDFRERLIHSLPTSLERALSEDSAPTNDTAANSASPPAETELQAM
Method: The present inventors observed changes in calcium ion permeability to confirm whether the immunomodulatory peptide candidates prepared according to one example of the present invention activate the immune function of a living organism. Specifically, the concentration of calcium ions in cells was measured to confirm whether the peptides activate FPR2.
A peptide dissolved in water or 50% DMSO at a concentration of 0.5 mM was prepared by diluting it to an appropriate concentration in HBSS (Sigma, #55037C)+20 mM HEPES buffer.
In this experiment, the cells were cultured in DMEM (Lonza, #BE12-604F) containing 10% fetal bovine serum (FBS) and 1% penicillin-streptomycin under conditions of 37° C. and 5% CO2.
(§1) The day before measuring calcium activity, the cells were prepared at 3×10^5 cells per well in a 96-well flat clear bottom black plate (Costar, #3603). The prepared cells were treated with a Fura-2 QBT calcium kit (component A; Molecular Devices, #8197) at the same volume per well. After incubation at 37° C. for 1 hour, the cells were incubated in a dark room at room temperature for 30 minutes. After the Fura-2-treated cells, the prepared peptide, and a dedicated tip were placed at each section of FlexStation 3 Multi-Mode Microplate Reader (Molecular Devices, #Flex3), changes in calcium activity caused by the peptides were measured using SoftMax Pro 7 Software (Molecular Devices, #FLEX3-INSTALL-OS).

FPR1 = molecular target: T2, FPR1 (Homo sapiens, UniProt P21462); experiment: Change in calcium activity by peptide, FPR1 activation effect; format: cell-based; details: calcium activity (Fura-2), graded per Table 3, read-out: EC50 for [Ca^2+] FPR1
T2 sequence (P21462 1-350): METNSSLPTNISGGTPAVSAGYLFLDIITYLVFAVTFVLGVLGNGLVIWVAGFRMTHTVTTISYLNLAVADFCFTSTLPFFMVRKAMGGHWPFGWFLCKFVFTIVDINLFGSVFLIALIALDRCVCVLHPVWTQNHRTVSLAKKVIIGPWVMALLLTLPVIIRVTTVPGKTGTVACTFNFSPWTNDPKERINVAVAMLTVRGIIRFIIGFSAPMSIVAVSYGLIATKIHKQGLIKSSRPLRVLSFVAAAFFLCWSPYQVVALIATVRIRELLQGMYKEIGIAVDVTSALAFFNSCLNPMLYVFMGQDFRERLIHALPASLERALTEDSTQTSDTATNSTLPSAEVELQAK
Method: as §1, with “#FLEX3-INSTALL-OS). […]” for “#FLEX3-INSTALL-OS).”

SMILES	EC50 (FPR2) [nM]	EC50 (FPR1) [nM]
CSCC[C@@H](NC(=O)[C@@H](NC(=O)[C@H](Cc1ccccc1)NC(=O)[C@H](Cc1ccc(O)cc1)NC(=O)[C@H](CCCNC(=N)N)NC(=O)[C@H](Cc1c[nH]c2ccccc12)NC(=O)[C@@H](N)CCCNC(=N)N)C(C)C)C(N)=O [Peptide 160] (HELM PEPTIDE1{R.W.R.Y.F.V.[dM].[am]}$$$$V2.0)	11 to 100	1000 to 10000
CSCC[C@H](NC(=O)[C@@H](N)Cc1c[nH]cn1)C(=O)N[C@@H](CCCNC(=N)N)C(=O)N[C@@H](Cc1ccc(O)cc1)C(=O)N[C@@H](CCCCN)C(=O)N[C@@H](Cc1ccc(O)cc1)C(=O)N[C@H](CCSC)C(N)=O [Peptide 44] (HELM PEPTIDE1{H.M.R.Y.K.Y.[dM].[am]}$$$$V2.0)	11 to 100	> 10000
CSCC[C@@H](NC(=O)[C@H](Cc1ccc(O)cc1)NC(=O)[C@H](Cc1c[nH]c2ccccc12)NC(=O)[C@H](Cc1ccc(O)cc1)NC(=O)[C@H](CCCNC(=N)N)NC(=O)[C@@H](N)Cc1c[nH]c2ccccc12)C(N)=O [Peptide 79] (HELM PEPTIDE1{W.R.Y.W.Y.[dM].[am]}$$$$V2.0)	11 to 100	> 10000
CCCCCCCC(=O)N[C@H](C(=O)N[C@@H](CCCCN)C(=O)N[C@@H](Cc1ccc(O)cc1)C(=O)N[C@@H](CCCCN)C(=O)N1CCC[C@H]1C(=O)N[C@H](CCSC)C(N)=O)[C@@H](C)CC [Peptide 145] (HELM PEPTIDE1{[CCCCCCCC(=O)[*:2]].I.K.Y.K.P.[dM].[am]}$$$$V2.0)	11 to 100	> 10000
CC[C@H](C)[C@H](N)C(=O)N[C@@H](CCCCN)C(=O)N[C@@H](CCCCN)C(=O)N[C@@H](Cc1c[nH]c2ccccc12)C(=O)N[C@@H](CCSC)C(=O)N[C@H](CCSC)C(N)=O [Peptide 130] (HELM PEPTIDE1{I.K.K.W.M.[dM].[am]}$$$$V2.0)	11 to 100	> 10000
CSCC[C@@H](NC(=O)[C@@H](NC(=O)[C@H](CCCCN)NC(=O)[C@H](Cc1ccc(O)cc1)NC(=O)[C@H](CCCCN)NC(=O)[C@@H]1CCCN1C(C)=O)C(C)C)C(N)=O [Peptide 139] (HELM PEPTIDE1{[ac].P.K.Y.K.V.[dM].[am]}$$$$V2.0)	< 10	> 10000
CC[C@H](C)[C@H](N)C(=O)N[C@@H](CCCCN)C(=O)N[C@@H](Cc1ccccc1)C(=O)N[C@@H](CCCCN)C(=O)N[C@@H](Cc1ccc(O)cc1)C(=O)N[C@H](CCSC)C(N)=O [Peptide 131] (HELM PEPTIDE1{I.K.F.K.Y.[dM].[am]}$$$$V2.0)	11 to 100	> 10000
CSCC[C@H](NC(=O)[C@@H](N)Cc1c[nH]cn1)C(=O)N[C@@H](CCCCN)C(=O)N[C@@H](Cc1ccc(O)cc1)C(=O)N[C@@H](CCCCN)C(=O)N[C@H](C(=O)N[C@H](CCSC)C(N)=O)C(C)C [Peptide 21] (HELM PEPTIDE1{H.M.K.Y.K.V.[dM].[am]}$$$$V2.0)	< 10	> 10000
CCCCCCCC(=O)N[C@@H](CCCNC(=N)N)C(=O)N[C@@H](Cc1c[nH]c2ccccc12)C(=O)N[C@@H](CCCNC(=N)N)C(=O)N[C@@H](Cc1ccc(O)cc1)C(=O)N[C@@H](CCCCN)C(=O)N[C@H](C(=O)N[C@H](CCSC)C(N)=O)C(C)C [Peptide 2] (HELM PEPTIDE1{[CCCCCCCC(=O)[*:2]].R.W.R.Y.K.V.[dM].[am]}$$$$V2.0)	11 to 100	1000 to 10000
CSCC[C@H](NC(=O)[C@@H](N)CCCCN)C(=O)N[C@@H](CCCCN)C(=O)N[C@@H](Cc1ccc(O)cc1)C(=O)N[C@@H](CCCCN)C(=O)N[C@H](C(=O)N[C@H](CCSC)C(N)=O)C(C)C [Peptide 9] (HELM PEPTIDE1{K.M.K.Y.K.V.[dM].[am]}$$$$V2.0)	11 to 100	> 10000

Continued, values first:

EC50 (FPR2) [nM]	EC50 (FPR1) [nM]	SMILES
< 10	> 10000	CSCC[C@@H](NC(=O)[C@H](Cc1ccc(O)cc1)NC(=O)[C@H](Cc1ccc(O)cc1)NC(=O)[C@H](Cc1ccc(O)cc1)NC(=O)[C@H](CCCNC(=N)N)NC(=O)[C@H](Cc1c[nH]c2ccccc12)NC(=O)[C@@H](N)CCCNC(=N)N)C(N)=O [Peptide 123] (HELM PEPTIDE1{R.W.R.Y.Y.Y.[dM].[am]}$$$$V2.0)
< 10	> 10000	CCCCCCCC(=O)N1CCC[C@H]1C(=O)N[C@@H](CCCCN)C(=O)N[C@@H](Cc1ccc(O)cc1)C(=O)N[C@@H](CCCCN)C(=O)N[C@H](C(=O)N[C@H](CCSC)C(N)=O)C(C)C [Peptide 141] (HELM PEPTIDE1{[CCCCCCCC(=O)[*:2]].P.K.Y.K.V.[dM].[am]}$$$$V2.0)
< 10	> 10000	CSCC[C@H](N)C(=O)N[C@@H](CCCCN)C(=O)N[C@@H](Cc1ccc(O)cc1)C(=O)N[C@@H](Cc1c[nH]c2ccccc12)C(=O)N[C@@H](Cc1ccc(O)cc1)C(=O)N[C@H](CCSC)C(N)=O [Peptide 89] (HELM PEPTIDE1{M.K.Y.W.Y.[dM].[am]}$$$$V2.0)
< 10	> 10000	CSCC[C@H](N)C(=O)N[C@@H](CCCNC(=N)N)C(=O)N[C@@H](Cc1ccc(O)cc1)C(=O)N[C@@H](CCCCN)C(=O)N[C@H](C(=O)N[C@H](CCSC)C(N)=O)C(C)C [Peptide 13] (HELM PEPTIDE1{M.R.Y.K.V.[dM].[am]}$$$$V2.0)
< 10	> 10000	CSCC[C@@H](NC(=O)[C@@H](NC(=O)[C@H](CCCCN)NC(=O)[C@H](Cc1ccc(O)cc1)NC(=O)[C@H](CCCNC(=N)N)NC(=O)[C@H](Cc1c[nH]c2ccccc12)NC(=O)[C@@H](N)CCCNC(=N)N)C(C)C)C(N)=O [Peptide 1] (HELM PEPTIDE1{R.W.R.Y.K.V.[dM].[am]}$$$$V2.0)
< 10	> 10000	CCCC(=O)N1CCC[C@H]1C(=O)N[C@@H](CCSC)C(=O)N[C@@H](CCCCN)C(=O)N[C@@H](Cc1ccc(O)cc1)C(=O)N[C@@H](CCCCN)C(=O)N[C@H](C(=O)N[C@H](CCSC)C(N)=O)C(C)C [Peptide 27] (HELM PEPTIDE1{[CCCC(=O)[*:2]].P.M.K.Y.K.V.[dM].[am]}$$$$V2.0)
< 10	101 to 1000	CSCC[C@H](N)C(=O)N[C@@H](CCCNC(=N)N)C(=O)N[C@@H](Cc1ccc(O)cc1)C(=O)N[C@@H](Cc1c[nH]c2ccccc12)C(=O)N1CCC[C@H]1C(=O)N[C@H](CCSC)C(N)=O [Peptide 110] (HELM PEPTIDE1{M.R.Y.W.P.[dM].[am]}$$$$V2.0)
< 10	> 10000	CSCC[C@@H](NC(=O)[C@H](Cc1ccc(O)cc1)NC(=O)[C@H](CCCCN)NC(=O)[C@H](Cc1ccc(O)cc1)NC(=O)[C@H](CCCNC(=N)N)NC(=O)[C@@H](N)Cc1c[nH]c2ccccc12)C(N)=O [Peptide 35] (HELM PEPTIDE1{W.R.Y.K.Y.[dM].[am]}$$$$V2.0)
< 10	> 10000	CCCC(=O)N[C@@H](CCCNC(=N)N)C(=O)N[C@@H](CCSC)C(=O)N[C@@H](CCCNC(=N)N)C(=O)N[C@@H](Cc1ccc(O)cc1)C(=O)N[C@@H](CCCCN)C(=O)N[C@H](C(=O)N[C@H](CCSC)C(N)=O)C(C)C [Peptide 7] (HELM PEPTIDE1{[CCCC(=O)[*:2]].R.M.R.Y.K.V.[dM].[am]}$$$$V2.0)
< 10	> 10000	CC[C@H](C)[C@H](NC(C)=O)C(=O)N[C@@H](CCCCN)C(=O)N[C@@H](Cc1ccc(O)cc1)C(=O)N[C@@H](CCCCN)C(=O)N1CCC[C@H]1C(=O)N[C@H](CCSC)C(N)=O [Peptide 143] (HELM PEPTIDE1{[ac].I.K.Y.K.P.[dM].[am]}$$$$V2.0)
< 10	1000 to 10000	CSCC[C@@H](NC(=O)[C@@H](NC(=O)[C@H](Cc1c[nH]c2ccccc12)NC(=O)[C@H](Cc1ccc(O)cc1)NC(=O)[C@H](CCCNC(=N)N)NC(=O)[C@H](Cc1c[nH]c2ccccc12)NC(=O)[C@@H](N)CCCNC(=N)N)C(C)C)C(N)=O [Peptide 101] (HELM PEPTIDE1{R.W.R.Y.W.V.[dM].[am]}$$$$V2.0)

Reference: US20250361268A1, “NOVEL ANTI-INFLAMMATORY PEPTIDE AND USE THEREOF” (NOVACELL TECHNOLOGY INC., priority 2022, published 2025)
